Measurements taken from ChEMBL document CHEMBL1201862, “PubChem BioAssay data set” (2004).
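Five compound concentrations were applied to cells in 96-well plates for 48 hours; endpoints were derived by simple linear interpolation of the resulting dose-response curve. Abbreviation: GI50, concentration required for 50% inhibition of growth.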 The source made the active and inactive calls. Rule as the data show it: active = GI50 up to about 1.1 µM and inactive = higher.

Experiments:
Experiment in all cases: NCI tumour cell line growth inhibition, 48 h
MCF7 = system: MCF7
A498 = system: A498
TK-10 = system: TK-10
A549 = system: A549
HL-60 = system: HL-60
UACC-62 = system: UACC-62
IGROV-1 = system: IGROV-1
NCI-H226 = system: NCI-H226
HOP-62 = system: HOP-62
RXF 393 = system: RXF 393
CAKI-1 = system: CAKI-1
HCT-15 = system: HCT-15
UACC-257 = system: UACC-257
SK-MEL-2 = system: SK-MEL-2
SF-268 = system: SF-268
HCT-116 = system: HCT-116
SNB-19 = system: SNB-19
NCI-H460 = system: NCI-H460
SK-MEL-5 = system: SK-MEL-5
SW-620 = system: SW-620

Measured: GI50

CC1=C(SCCO)C(=O)c2ccccc2C1=O
7.35 µM: HCT-15
inactive: MCF7 3.02 µM | A498 16.9 µM | TK-10 16.8 µM | A549 15.9 µM | UACC-62 14.9 µM | IGROV-1 14.2 µM | NCI-H226 14.7 µM | HOP-62 15.9 µM | RXF 393 13.4 µM | CAKI-1 14.9 µM | UACC-257 13 µM | SK-MEL-2 11.7 µM | SF-268 15.5 µM | HCT-116 4.76 µM | SNB-19 25.4 µM | NCI-H460 13.2 µM | SK-MEL-5 13.3 µM | SW-620 12.2 µM
active: HL-60 0.55 µM

O=C(NN1C(=O)CSC1c1ccc(C(F)(F)F)cc1)c1ccncc1 (stereo not drawn)
inactive: MCF7 > 100 µM | A498 > 31.6 µM | A549 > 100 µM | HL-60 > 100 µM | UACC-62 > 100 µM | IGROV-1 > 100 µM | NCI-H226 > 100 µM | HOP-62 > 100 µM | RXF 393 97.3 µM | CAKI-1 > 100 µM | UACC-257 > 100 µM | SK-MEL-2 > 100 µM | SF-268 > 100 µM | HCT-116 > 100 µM | SNB-19 > 100 µM | NCI-H460 > 100 µM | SK-MEL-5 > 100 µM | SW-620 > 100 µM
> 100 µM: HCT-15

CCOc1ncn(-c2ccc(NC(=S)Nc3cccc(O)c3)cc2)n1
inactive: MCF7 > 100 µM | TK-10 > 100 µM | A549 > 100 µM | HL-60 > 100 µM | UACC-62 > 100 µM | IGROV-1 > 100 µM | HOP-62 > 100 µM | UACC-257 > 100 µM | SF-268 > 100 µM | HCT-116 > 100 µM | SNB-19 > 100 µM | NCI-H460 > 100 µM | SK-MEL-5 > 100 µM | SW-620 > 100 µM
> 100 µM: HCT-15

N#C/C(=C\c1ccc(Cl)cc1)c1nc2ccccc2c(=O)[nH]1
> 100 µM: HCT-15
inactive: MCF7 > 100 µM | TK-10 76 µM | A549 > 100 µM | HL-60 > 100 µM | UACC-62 43.7 µM | IGROV-1 > 100 µM | NCI-H226 > 100 µM | HOP-62 33 µM | RXF 393 81.5 µM | CAKI-1 > 100 µM | UACC-257 > 100 µM | SK-MEL-2 > 100 µM | SF-268 51.6 µM | HCT-116 > 100 µM | SNB-19 85.9 µM | NCI-H460 > 100 µM | SK-MEL-5 > 100 µM | SW-620 > 100 µM

CC12CCC(=O)N1c1cnccc1N2 (stereo not drawn)
inactive: A498 > 100 µM | TK-10 > 100 µM | A549 > 100 µM | HL-60 > 100 µM | UACC-62 > 100 µM | IGROV-1 > 100 µM | HOP-62 > 100 µM | CAKI-1 > 100 µM | UACC-257 > 100 µM | SK-MEL-2 > 100 µM | SF-268 > 100 µM | HCT-116 > 100 µM | SNB-19 > 100 µM | NCI-H460 > 100 µM | SK-MEL-5 > 100 µM | SW-620 > 100 µM
> 100 µM: HCT-15

CC(=O)O[C@H]1CC[C@H]2[C@@H]3CCC(C(C)=O)[C@H](C(=O)O)[C@H]3CC[C@]12C (stereo partly drawn)
inactive: MCF7 > 100 µM | A498 > 100 µM | TK-10 > 100 µM | A549 > 100 µM | HL-60 > 100 µM | UACC-62 > 100 µM | IGROV-1 > 100 µM | HOP-62 > 100 µM | RXF 393 > 100 µM | CAKI-1 > 100 µM | UACC-257 > 100 µM | SK-MEL-2 > 100 µM | SF-268 > 100 µM | SNB-19 > 100 µM | NCI-H460 > 100 µM | SK-MEL-5 > 100 µM | SW-620 > 100 µM
> 100 µM: HCT-15

CC(=O)/N=C1\N/C(=C/c2cc([N+](=O)[O-])ccc2O)CN1C
> 100 µM: HCT-15
inactive: MCF7 > 100 µM | TK-10 > 100 µM | A549 > 100 µM | HL-60 69.2 µM | UACC-62 > 100 µM | IGROV-1 > 100 µM | NCI-H226 > 100 µM | HOP-62 > 100 µM | CAKI-1 > 100 µM | UACC-257 > 100 µM | SK-MEL-2 > 100 µM | HCT-116 > 100 µM | SNB-19 > 100 µM | NCI-H460 > 100 µM | SK-MEL-5 > 100 µM | SW-620 > 100 µM

O=C1OC(CN2CCOCC2)CN1/N=C/c1ccc([N+](=O)[O-])o1 (stereo not drawn) [FURALTADONE]
17 µM: HCT-15
inactive: MCF7 46 µM | TK-10 > 100 µM | A549 50.9 µM | HL-60 48.8 µM | UACC-62 34 µM | IGROV-1 32.3 µM | NCI-H226 39.1 µM | HOP-62 61.9 µM | CAKI-1 38.5 µM | UACC-257 35.7 µM | SK-MEL-2 69.3 µM | SF-268 60.3 µM | HCT-116 19.1 µM | SNB-19 86.1 µM | NCI-H460 31.4 µM | SK-MEL-5 23.6 µM | SW-620 50.7 µM

Clc1cc(N/N=C(\c2ccccc2)c2ccccn2)ncn1
inactive: RXF 393 5.08 µM | SK-MEL-2 4.78 µM | SNB-19 1.85 µM
active: MCF7 < 0.01 µM | TK-10 0.0363 µM | A549 0.55 µM | UACC-62 0.308 µM | IGROV-1 0.0308 µM | NCI-H226 0.246 µM | HOP-62 0.256 µM | CAKI-1 < 0.01 µM | UACC-257 0.0274 µM | SF-268 0.489 µM | HCT-116 0.0277 µM | NCI-H460 0.0262 µM | SK-MEL-5 0.254 µM | SW-620 0.0238 µM

CCCCCCCCCCCCCCCc1nnc(S)[nH]1
48 µM: HCT-15
inactive: A498 > 100 µM | TK-10 > 100 µM | HL-60 49.8 µM | UACC-62 97.9 µM | HOP-62 > 100 µM | RXF 393 > 100 µM | UACC-257 88.7 µM | SK-MEL-2 29.6 µM | SF-268 > 100 µM | HCT-116 > 100 µM | SNB-19 > 100 µM | NCI-H460 > 100 µM

COc1ccc2nc3c(C)cc4ccccc4n3c2c1
56.5 µM: HCT-15
inactive: MCF7 51.5 µM | A498 11.9 µM | TK-10 80.2 µM | A549 41.1 µM | HL-60 > 100 µM | UACC-62 > 100 µM | IGROV-1 29.2 µM | NCI-H226 > 100 µM | HOP-62 75.3 µM | RXF 393 25.8 µM | UACC-257 > 100 µM | SF-268 86.9 µM | HCT-116 41.6 µM | SNB-19 > 100 µM | NCI-H460 25.3 µM | SK-MEL-5 57.9 µM | SW-620 73.6 µM

O=c1oc2ccccc2n1P(=O)(Oc1ccc(Cl)cc1)n1c(=O)oc2ccccc21
inactive: A498 > 100 µM | TK-10 > 100 µM | A549 > 100 µM | HL-60 41.8 µM | UACC-62 61 µM | IGROV-1 > 100 µM | NCI-H226 > 100 µM | HOP-62 > 100 µM | RXF 393 > 100 µM | CAKI-1 > 100 µM | UACC-257 > 100 µM | SK-MEL-2 55 µM | SF-268 > 100 µM | HCT-116 > 100 µM | SNB-19 > 100 µM | SK-MEL-5 > 100 µM | SW-620 > 100 µM

N/C(=N\O)N/N=C/c1ncccc1O
inactive: MCF7 2.07 µM | A498 35.7 µM | A549 10.1 µM | HL-60 2.41 µM | UACC-62 10.3 µM | IGROV-1 16.2 µM | NCI-H226 18.7 µM | HOP-62 19.8 µM | RXF 393 38.2 µM | CAKI-1 22.4 µM | UACC-257 26.1 µM | SK-MEL-2 31.3 µM | SF-268 22.7 µM | HCT-116 11.8 µM | SNB-19 33.8 µM | NCI-H460 5.96 µM | SK-MEL-5 11.4 µM | SW-620 22 µM
4.66 µM: HCT-15

CCCCC(CC)C(=O)Oc1ccc(C(=O)c2ccccc2)c(O)c1 (stereo not drawn)
40.1 µM: HCT-15
inactive: MCF7 60.4 µM | A498 45.9 µM | TK-10 58.7 µM | A549 46.8 µM | HL-60 55.1 µM | UACC-62 32 µM | IGROV-1 55.7 µM | HOP-62 55 µM | RXF 393 49.8 µM | CAKI-1 43.5 µM | UACC-257 38.5 µM | SK-MEL-2 56.4 µM | SF-268 34.5 µM | HCT-116 43.3 µM | SNB-19 68.9 µM | NCI-H460 35 µM | SK-MEL-5 39.6 µM | SW-620 56.4 µM

Nc1c(S(=O)(=O)O)cc(S(=O)(=O)O)c2ccc(/N=N/c3ccc(/C=C/c4ccc(/N=N/c5ccc6c(S(=O)(=O)O)cc(S(=O)(=O)O)c(N)c6c5O)cc4S(=O)(=O)O)c(S(=O)(=O)O)c3)c(O)c12
> 73.5 µM: HCT-15
inactive: MCF7 > 100 µM | A498 > 100 µM | A549 75 µM | HL-60 36.1 µM | UACC-62 > 100 µM | IGROV-1 90.2 µM | NCI-H226 > 100 µM | HOP-62 > 100 µM | RXF 393 > 85.1 µM | UACC-257 > 100 µM | SK-MEL-2 > 100 µM | SF-268 > 100 µM | HCT-116 > 100 µM | SNB-19 > 100 µM | NCI-H460 > 92.7 µM | SK-MEL-5 > 100 µM | SW-620 > 100 µM

CCOC(=O)CCc1c(C)c2c(O)cc(O)cc2oc1=O
99.1 µM: HCT-15
inactive: MCF7 > 100 µM | A498 > 100 µM | A549 > 100 µM | HL-60 42.1 µM | UACC-62 > 100 µM | IGROV-1 > 100 µM | NCI-H226 > 87.9 µM | HOP-62 > 100 µM | RXF 393 > 78.9 µM | CAKI-1 > 100 µM | UACC-257 > 100 µM | SK-MEL-2 > 76.4 µM | SF-268 > 100 µM | HCT-116 15.8 µM | SNB-19 > 84.1 µM | NCI-H460 > 100 µM | SK-MEL-5 > 100 µM | SW-620 > 100 µM
